The record followed here is ChEMBL document CHEMBL1201862, “PubChem BioAssay data set” (2004).

Among the test systems are DLD-1; DMS-114; DMS-273; HOP-18; KM-20L2; M19-MEL; SNB-78; XF498; 786-0.
What all share (assay): growth of human tumour cells (NCI), 48 h

Molecules are shown by their SMILES.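 Values below derive from 48-hour exposures of cells grown in 96-well plates, with endpoints linearly interpolated between the two concentrations bracketing the appropriate inhibition level. GI50 is the concentration that inhibits growth by half.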 The source made the active and inactive calls. Cut-off read from the data, not from the text of the source: active = GI50 up to about 1.1 µM and inactive = higher.

As for `CCOC(=O)C(=O)Nc1c(CC)cccc1C(C)CC` (stereo not given), the GI50 in the experiment with DLD-1, with DMS-114, in the experiment on DMS-273, with HOP-18, in the experiment on KM-20L2 and in the experiment with M19-MEL was > 100 µM (inactive) each time. In addition, the GI50 in the experiment with SNB-78 and in the experiment on XF498 was > 100 µM (inactive) each time.
With `O=C1CC2CC3OC3[C@H]3c4cc5c(cc4C(=O)N1C23)OCO5` (stereo not given in full), the GI50 with DMS-114, with DMS-273, in the experiment on KM-20L2, in the experiment with M19-MEL and with XF498 was > 100 µM (inactive) each time.
Take `Nc1nnc(O)c2c1c(I)cn2C1OC(CO)C(O)C1O` (stereo not given): the GI50 in the experiment on DLD-1 is 0.082 µM (active); with DMS-114 it was 1.43 µM (inactive); with DMS-273, 0.125 µM (active); in the experiment with HOP-18, 3.05 µM (inactive); in the experiment on KM-20L2, 2.49 µM (inactive); in the experiment on SNB-78 it was 1.17 µM (inactive). In addition, in the experiment with XF498, the GI50 was 2.96 µM (inactive).
In the case of `CSc1ccccc1P(c1ccccc1SC)c1ccccc1SC`, in the experiment with 786-0, the GI50 is > 100 µM (inactive).
Same read-out and setting: the result for `COc1c(OC)c(OC)c2c(c1OC)c(=O)c1ccccc1n2C` [MELICOPICINE] reads > 100 µM (inactive); that for `CC(C)(C)N(Cc1ccoc1)C(=O)/C=C\[S+]([O-])c1ccccc1` (stereo not given), 19.8 µM (inactive).
Same read-out and setting: the result for `COc1ccc(N[C@H](C[S+]([O-])c2ccc(C)cc2)C(F)(F)C(F)(F)F)cc1` (stereo not given in full) reads 65.8 µM (inactive).
On to `COC(=O)NN1C(=O)C(=P(c2ccccc2)(c2ccccc2)c2ccccc2)C(C(=O)OC)=C1C`, for which the GI50 in the experiment with DMS-114, in the experiment on DMS-273, in the experiment with HOP-18, with KM-20L2, in the experiment on M19-MEL and in the experiment on SNB-78 was > 100 µM (inactive) each time.
